Measured values reported in paper PMC5909127, “Optimization of a “bump-and-hole” approach to allele-selective BET bromodomain inhibition” (Chemical Science, 2018).

How the values were obtained:
[1] = molecular target: BRD2 BD2 L/V (Homo sapiens, UniProt P25440, L383V); assay: ITC; format: binding
[2] = molecular target: T1, BRD4 BD1 WT (Homo sapiens, UniProt O60885); assay: competitive AlphaLISA; format: binding
[3] = molecular target: BRD4 BD2 L/V (Homo sapiens, UniProt O60885, L387V); assay: ITC; format: binding
[4] = molecular target: BRD3 BD1 WT (Homo sapiens, UniProt Q15059); assay: ITC; format: binding
BRD3 BD1 WT, sequence (Q15059 24-144): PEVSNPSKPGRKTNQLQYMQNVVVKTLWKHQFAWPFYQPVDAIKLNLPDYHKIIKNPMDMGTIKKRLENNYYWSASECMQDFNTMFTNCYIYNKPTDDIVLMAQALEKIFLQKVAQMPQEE

[5] = molecular target: BRD2 BD1 WT (Homo sapiens, UniProt P25440); assay: ITC; format: binding
BRD2 BD1 WT, sequence (P25440 71-176): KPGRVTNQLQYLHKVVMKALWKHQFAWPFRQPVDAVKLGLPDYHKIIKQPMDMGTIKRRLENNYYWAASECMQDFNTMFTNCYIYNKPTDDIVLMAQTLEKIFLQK

[6] = molecular target: T2, BRD4 BD1 L/V (Homo sapiens, UniProt O60885, L94V); assay: competitive AlphaLISA; format: binding; conditions: for ΔpIC50 BRD4 BD1: L/V minus WT
[7] = molecular target: BRD2 BD1 L/V (Homo sapiens, UniProt P25440, L110V); assay: ITC; format: binding
BRD2 BD1 L/V, sequence (P25440 71-176 L110V limits assumed): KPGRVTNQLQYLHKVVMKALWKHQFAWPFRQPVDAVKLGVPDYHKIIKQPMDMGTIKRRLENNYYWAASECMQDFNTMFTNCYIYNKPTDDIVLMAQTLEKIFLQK

[8] = molecular target: BRD3 BD2 L/V (Homo sapiens, UniProt Q15059, L345V); assay: ITC; format: binding
BRD3 BD2 L/V, sequence (Q15059 306-416 L345V limits assumed): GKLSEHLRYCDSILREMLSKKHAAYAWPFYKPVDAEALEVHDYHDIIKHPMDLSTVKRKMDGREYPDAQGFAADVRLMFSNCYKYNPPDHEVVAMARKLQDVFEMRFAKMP

[9] = tested on: L/V somatic BET bromodomains; assay: ITC
[10] = molecular target: T3, BRD3 BD2 WT (Homo sapiens, UniProt Q15059); assay: competitive AlphaLISA; format: binding
T3 sequence (Q15059 306-416): as the sequence (Q15059 306-416 L345V limits assumed) above, with V40L counted along it

[11] = molecular target: BRD2 BD2 WT (Homo sapiens, UniProt P25440); assay: ITC; format: binding
BRD2 BD2 WT, sequence (P25440 344-455): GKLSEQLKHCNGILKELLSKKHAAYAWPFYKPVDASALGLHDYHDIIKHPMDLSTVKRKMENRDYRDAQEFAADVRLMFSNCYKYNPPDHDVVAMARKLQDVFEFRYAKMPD

[12] = molecular target: T1, BRD4 BD1 WT; assay: ITC; format: binding
[13] = molecular target: BRD3 BD1 L/V (Homo sapiens, UniProt Q15059, L70V); assay: ITC; format: binding
BRD3 BD1 L/V, sequence (Q15059 24-144 L70V limits assumed): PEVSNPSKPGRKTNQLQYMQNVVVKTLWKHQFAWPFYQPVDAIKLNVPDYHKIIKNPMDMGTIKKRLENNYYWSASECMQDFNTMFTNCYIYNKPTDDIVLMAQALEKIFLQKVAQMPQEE

[14] = molecular target: T3, BRD3 BD2 WT; assay: ITC; format: binding
[15] = molecular target: BRD4 BD2 WT (Homo sapiens, UniProt O60885); assay: ITC; format: binding
[16] = molecular target: T2, BRD4 BD1 L/V; assay: ITC; format: binding; conditions: for Kd: Kd BRD4 BD1 L/V
[17] = tested on: sst (non-selective); assay: CEREP ExpresSProfile; format: binding; conditions: 1 µM
[18] = molecular target: 5-HT6 (h) (Homo sapiens, UniProt P50406); assay: CEREP ExpresSProfile; conditions: read-out: Mean % of control specific binding (±SD)
5-HT6 (h), sequence (P50406 whole entry): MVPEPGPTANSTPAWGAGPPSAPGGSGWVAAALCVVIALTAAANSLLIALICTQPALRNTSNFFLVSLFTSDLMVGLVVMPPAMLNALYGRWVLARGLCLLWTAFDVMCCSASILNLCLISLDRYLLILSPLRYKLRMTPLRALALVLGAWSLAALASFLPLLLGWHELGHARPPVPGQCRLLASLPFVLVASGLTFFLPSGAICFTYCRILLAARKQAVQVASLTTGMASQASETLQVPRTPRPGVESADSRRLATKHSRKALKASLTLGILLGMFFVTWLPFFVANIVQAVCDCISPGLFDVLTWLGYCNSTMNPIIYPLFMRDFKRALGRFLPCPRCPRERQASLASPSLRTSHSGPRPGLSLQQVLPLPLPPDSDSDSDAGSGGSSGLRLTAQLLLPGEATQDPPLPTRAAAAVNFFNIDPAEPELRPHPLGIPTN

[19] = molecular target: A3 (h) (Homo sapiens, UniProt P0DMS8); assay: CEREP ExpresSProfile; conditions: read-out: Mean % of control specific binding (±SD)
A3 (h), sequence (P0DMS8 whole entry): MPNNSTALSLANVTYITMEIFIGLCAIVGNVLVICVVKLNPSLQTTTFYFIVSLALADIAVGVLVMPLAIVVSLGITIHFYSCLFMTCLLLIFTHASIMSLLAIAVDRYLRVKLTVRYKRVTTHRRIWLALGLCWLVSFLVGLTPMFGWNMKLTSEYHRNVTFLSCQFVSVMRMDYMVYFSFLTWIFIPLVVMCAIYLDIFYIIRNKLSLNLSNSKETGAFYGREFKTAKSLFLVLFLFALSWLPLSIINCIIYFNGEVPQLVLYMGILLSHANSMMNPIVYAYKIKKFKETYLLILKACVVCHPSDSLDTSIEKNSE
Source text: (§1) Receptor Reference Compound Mean % of control specific
Receptor & Ion-Channel Screening
CEREP ExpresSProfile panel

[20] = molecular target: MC4 (h) (Homo sapiens, UniProt P32245); assay: CEREP ExpresSProfile; conditions: read-out: Mean % of control specific binding (±SD)
MC4 (h), sequence (P32245 whole entry): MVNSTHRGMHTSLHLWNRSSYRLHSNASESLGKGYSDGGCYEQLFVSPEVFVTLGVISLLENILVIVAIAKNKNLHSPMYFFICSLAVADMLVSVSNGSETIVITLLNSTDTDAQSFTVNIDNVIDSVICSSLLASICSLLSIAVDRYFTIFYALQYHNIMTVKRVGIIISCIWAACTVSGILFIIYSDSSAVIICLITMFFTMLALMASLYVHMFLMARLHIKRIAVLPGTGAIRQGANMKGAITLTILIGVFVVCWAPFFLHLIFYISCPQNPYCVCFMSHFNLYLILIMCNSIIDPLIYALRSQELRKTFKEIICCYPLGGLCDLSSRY
Source text: as §1
Receptor & Ion-Channel Screening
CEREP ExpresSProfile panel

[21] = molecular target: mu (MOP) (h) (Homo sapiens, UniProt P35372); assay: CEREP ExpresSProfile; conditions: read-out: Mean % of control specific binding (±SD)
mu (MOP) (h), sequence (P35372 whole entry): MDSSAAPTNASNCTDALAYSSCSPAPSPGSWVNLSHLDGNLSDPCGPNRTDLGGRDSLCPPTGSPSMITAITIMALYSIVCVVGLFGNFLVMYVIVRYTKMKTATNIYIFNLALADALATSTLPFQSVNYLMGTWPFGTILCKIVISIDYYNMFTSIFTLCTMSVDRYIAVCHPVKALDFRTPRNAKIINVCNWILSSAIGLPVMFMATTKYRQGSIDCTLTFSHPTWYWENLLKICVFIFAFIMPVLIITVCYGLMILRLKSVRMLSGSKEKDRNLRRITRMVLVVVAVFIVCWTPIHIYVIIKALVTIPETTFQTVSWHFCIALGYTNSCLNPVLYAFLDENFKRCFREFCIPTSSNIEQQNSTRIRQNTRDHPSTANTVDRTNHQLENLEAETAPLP

[22] = molecular target: M3 (h) (Homo sapiens, UniProt P20309); assay: CEREP ExpresSProfile; conditions: read-out: Mean % of control specific binding (±SD)
M3 (h), sequence (P20309 whole entry): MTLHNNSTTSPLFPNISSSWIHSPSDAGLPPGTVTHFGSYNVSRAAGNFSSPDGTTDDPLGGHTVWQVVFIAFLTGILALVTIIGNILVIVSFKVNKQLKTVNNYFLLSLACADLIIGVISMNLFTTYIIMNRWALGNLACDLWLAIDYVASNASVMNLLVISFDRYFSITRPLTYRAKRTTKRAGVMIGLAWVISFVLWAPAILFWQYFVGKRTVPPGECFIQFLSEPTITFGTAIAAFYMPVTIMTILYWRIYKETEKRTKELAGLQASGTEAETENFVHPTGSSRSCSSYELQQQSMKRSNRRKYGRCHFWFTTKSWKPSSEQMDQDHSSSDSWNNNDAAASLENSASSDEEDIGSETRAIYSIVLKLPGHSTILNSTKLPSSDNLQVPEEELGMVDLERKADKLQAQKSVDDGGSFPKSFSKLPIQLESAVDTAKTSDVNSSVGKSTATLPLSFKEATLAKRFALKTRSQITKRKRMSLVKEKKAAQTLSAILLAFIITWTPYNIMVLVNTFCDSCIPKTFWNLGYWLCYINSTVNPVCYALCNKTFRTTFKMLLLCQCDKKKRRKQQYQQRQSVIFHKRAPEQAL

[23] = molecular target: B2 (h) (Homo sapiens, UniProt P30411); assay: CEREP ExpresSProfile; conditions: read-out: Mean % of control specific binding (±SD)
B2 (h), sequence (P30411 whole entry): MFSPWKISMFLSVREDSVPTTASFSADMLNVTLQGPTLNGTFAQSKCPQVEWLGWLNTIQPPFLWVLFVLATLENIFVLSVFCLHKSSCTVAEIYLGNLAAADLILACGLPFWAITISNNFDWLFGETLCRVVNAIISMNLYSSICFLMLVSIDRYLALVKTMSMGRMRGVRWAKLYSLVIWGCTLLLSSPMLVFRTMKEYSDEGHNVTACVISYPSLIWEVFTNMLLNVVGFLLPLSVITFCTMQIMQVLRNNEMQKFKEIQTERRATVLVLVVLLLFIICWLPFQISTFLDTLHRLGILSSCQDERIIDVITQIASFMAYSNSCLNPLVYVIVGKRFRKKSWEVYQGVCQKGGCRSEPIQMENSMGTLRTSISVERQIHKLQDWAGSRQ

[24] = molecular target: 5-HT3 (h) (Homo sapiens, UniProt P46098); assay: CEREP ExpresSProfile; conditions: read-out: Mean % of control specific binding (±SD)
5-HT3 (h), sequence (P46098 24-478): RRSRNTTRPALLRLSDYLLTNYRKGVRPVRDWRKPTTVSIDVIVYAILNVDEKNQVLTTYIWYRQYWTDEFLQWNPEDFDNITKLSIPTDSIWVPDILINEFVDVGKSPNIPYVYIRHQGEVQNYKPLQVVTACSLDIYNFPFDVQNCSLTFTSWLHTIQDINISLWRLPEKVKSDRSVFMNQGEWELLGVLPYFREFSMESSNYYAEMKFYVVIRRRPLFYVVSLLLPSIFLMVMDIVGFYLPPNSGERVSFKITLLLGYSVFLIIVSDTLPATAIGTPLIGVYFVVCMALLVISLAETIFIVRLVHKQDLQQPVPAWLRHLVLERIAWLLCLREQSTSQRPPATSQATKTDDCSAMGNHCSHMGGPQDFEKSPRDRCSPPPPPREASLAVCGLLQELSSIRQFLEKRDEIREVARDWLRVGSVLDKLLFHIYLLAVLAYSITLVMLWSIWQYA
Source text: as §1
Receptor & Ion-Channel Screening
CEREP ExpresSProfile panel

[25] = molecular target: 5-HT1B (Rattus norvegicus, UniProt P28564); assay: CEREP ExpresSProfile; conditions: read-out: Mean % of control specific binding (±SD)
5-HT1B, sequence (P28564 whole entry): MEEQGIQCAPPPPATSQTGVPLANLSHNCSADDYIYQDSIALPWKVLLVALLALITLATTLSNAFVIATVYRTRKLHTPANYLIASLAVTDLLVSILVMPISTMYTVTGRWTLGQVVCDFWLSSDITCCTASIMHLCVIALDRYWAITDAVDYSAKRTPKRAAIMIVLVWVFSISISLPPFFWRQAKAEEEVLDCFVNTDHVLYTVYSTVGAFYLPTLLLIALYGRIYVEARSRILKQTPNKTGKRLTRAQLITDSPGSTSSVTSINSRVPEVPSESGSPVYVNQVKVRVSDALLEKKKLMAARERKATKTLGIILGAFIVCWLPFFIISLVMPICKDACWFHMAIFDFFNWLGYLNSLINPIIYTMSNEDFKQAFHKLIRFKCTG

[26] = pIC50 BRD4 BD1 WT, separated enantiomers test, total compound concentration
[27] = pIC50 BRD4 BD1 L/V, separated enantiomers test, total compound concentration
[28] = ITC, total compound concentration
[29] = ITC of separated enantiomers and racemates, total compound concentration

BRD2 BD2 L/V, sequence (P25440 344-455 L383V): as the sequence (P25440 344-455) above, with L40V counted along it

CC[C@@H](C(=O)OC)[C@@H]1N=C(c2ccc(Cl)cc2)c2ccc(OC)cc2-n2c(C)nnc21 (racemic) [Compound 8]
Kd [1]: 300 nM | selectivity plot WT 2.1 vs L/V 2.2 ([1]; Kd BRD2 BD1 WT / Kd BRD2 BD2 L/V): > 200 | selectivity plot WT 2.2 vs L/V 2.2 ([1]; Kd BRD2 BD2 WT / Kd BRD2 BD2 L/V): > 200 | selectivity plot WT 3.1 vs L/V 2.2 ([1]; Kd BRD3 BD1 WT / Kd BRD2 BD2 L/V): 100 | selectivity plot WT 3.2 vs L/V 2.2 ([1]; Kd BRD3 BD2 WT / Kd BRD2 BD2 L/V): > 200 | selectivity plot WT 4.1 vs L/V 2.2 ([1]; Kd BRD4 BD1 WT / Kd BRD2 BD2 L/V): > 200 | selectivity plot WT 4.2 vs L/V 2.2 ([1]; Kd BRD4 BD2 WT / Kd BRD2 BD2 L/V): > 200 | IC50 ([2]; AlphaLISA pIC50 Value BRD4 BD1 WT): 1.58 µM | IC50 [2, 26]: 50.1 µM | Kd [3]: 740 nM | selectivity plot WT 2.1 vs L/V 4.2 ([3]; Kd BRD2 BD1 WT / Kd BRD4 BD2 L/V): > 80 | selectivity plot WT 2.2 vs L/V 4.2 ([3]; Kd BRD2 BD2 WT / Kd BRD4 BD2 L/V): > 80 | selectivity plot WT 3.1 vs L/V 4.2 ([3]; Kd BRD3 BD1 WT / Kd BRD4 BD2 L/V): 40 | selectivity plot WT 3.2 vs L/V 4.2 ([3]; Kd BRD3 BD2 WT / Kd BRD4 BD2 L/V): > 80 | selectivity plot WT 4.1 vs L/V 4.2 ([3]; Kd BRD4 BD1 WT / Kd BRD4 BD2 L/V): > 80 | selectivity plot WT 4.2 vs L/V 4.2 ([3]; Kd BRD4 BD2 WT / Kd BRD4 BD2 L/V): > 80 | Kd [4]: 29 µM | Kd [5]: > 60 µM | IC50 ([6]; AlphaLISA pIC50 Value BRD4 BD1 L/V): 126 nM | ΔpIC50 BRD4 BD1 ([6]; total compound concentration): 1.4 | IC50 [6, 27]: 2000 nM | Kd [7]: 340 nM | selectivity plot WT 2.1 vs L/V 2.1 ([7]; Kd BRD2 BD1 WT / Kd BRD2 BD1 L/V): > 180 | selectivity plot WT 2.2 vs L/V 2.1 ([7]; Kd BRD2 BD2 WT / Kd BRD2 BD1 L/V): > 180 | selectivity plot WT 3.1 vs L/V 2.1 ([7]; Kd BRD3 BD1 WT / Kd BRD2 BD1 L/V): 90 | selectivity plot WT 3.2 vs L/V 2.1 ([7]; Kd BRD3 BD2 WT / Kd BRD2 BD1 L/V): > 180 | selectivity plot WT 4.1 vs L/V 2.1 ([7]; Kd BRD4 BD1 WT / Kd BRD2 BD1 L/V): > 180 | selectivity plot WT 4.2 vs L/V 2.1 ([7]; Kd BRD4 BD2 WT / Kd BRD2 BD1 L/V): > 180 | Kd [8]: 410 nM | selectivity plot WT 2.1 vs L/V 3.2 ([8]; Kd BRD2 BD1 WT / Kd BRD3 BD2 L/V): > 150 | selectivity plot WT 2.2 vs L/V 3.2 ([8]; Kd BRD2 BD2 WT / Kd BRD3 BD2 L/V): > 150 | selectivity plot WT 3.1 vs L/V 3.2 ([8]; Kd BRD3 BD1 WT / Kd BRD3 BD2 L/V): 70 | selectivity plot WT 3.2 vs L/V 3.2 ([8]; Kd BRD3 BD2 WT / Kd BRD3 BD2 L/V): > 150 | selectivity plot WT 4.1 vs L/V 3.2 ([8]; Kd BRD4 BD1 WT / Kd BRD3 BD2 L/V): > 150 | selectivity plot WT 4.2 vs L/V 3.2 ([8]; Kd BRD4 BD2 WT / Kd BRD3 BD2 L/V): > 150 | ITC pKd ± SD Δ ([9]; L/V minus WT): >2.2 ± 0.2 | selectivity for the L/V mutant over wild-type ([9]; across the BET subfamily, ITC): > 100 fold | ITC pKd ± SD L/V ([9]; mean and SD of all somatic bromodomains): 6.4 ± 0.2 | IC50 [10]: 3.98 µM | Kd [11]: > 60 µM | Kd [12]: > 60 µM | Kd [13]: 270 nM | selectivity plot WT 2.1 vs L/V 3.1 ([13]; Kd BRD2 BD1 WT / Kd BRD3 BD1 L/V): > 230 | selectivity plot WT 2.2 vs L/V 3.1 ([13]; Kd BRD2 BD2 WT / Kd BRD3 BD1 L/V): > 230 | selectivity plot WT 3.1 vs L/V 3.1 ([13]; Kd BRD3 BD1 WT / Kd BRD3 BD1 L/V): 110 | selectivity plot WT 3.2 vs L/V 3.1 ([13]; Kd BRD3 BD2 WT / Kd BRD3 BD1 L/V): > 230 | selectivity plot WT 4.1 vs L/V 3.1 ([13]; Kd BRD4 BD1 WT / Kd BRD3 BD1 L/V): > 230 | selectivity plot WT 4.2 vs L/V 3.1 ([13]; Kd BRD4 BD2 WT / Kd BRD3 BD1 L/V): > 230 | Kd [14]: > 60 µM | Kd [15]: > 60 µM | N BRD4 BD1 L/V ([16]; ITC stoichiometry, total compound concentration): 1.42 ±0.02 | ΔH BRD4 BD1 L/V [16, 28]: -3.5 ± 0.1 kcal/mol | selectivity plot WT 2.1 vs L/V 4.1 ([16]; Kd BRD2 BD1 WT / Kd BRD4 BD1 L/V): > 110 | selectivity plot WT 2.2 vs L/V 4.1 ([16]; Kd BRD2 BD2 WT / Kd BRD4 BD1 L/V): > 100 | selectivity plot WT 3.1 vs L/V 4.1 ([16]; Kd BRD3 BD1 WT / Kd BRD4 BD1 L/V): 60 | selectivity plot WT 3.2 vs L/V 4.1 ([16]; Kd BRD3 BD2 WT / Kd BRD4 BD1 L/V): > 110 | Kd [16, 29]: 840 ± 170 nM | Kd ([16]; ITC, 30°C): 530 nM | selectivity plot WT 4.1 vs L/V 4.1 ([16]; Kd BRD4 BD1 WT / Kd BRD4 BD1 L/V): > 100 | selectivity plot WT 4.2 vs L/V 4.1 ([16]; Kd BRD4 BD2 WT / Kd BRD4 BD1 L/V): > 100

COC(=O)[C@H](C)[C@@H]1N=C(c2ccc(Cl)cc2)c2ccc(OC)cc2-n2c(C)nnc21 [(2R,3S)-7]
Kd [1]: 200 nM | IC50 [2, 26]: 7.94 µM | Kd [3]: 300 nM | Mean % of control specific binding (±SD) [17]: 108 (6) % | Kd [4]: 7.5 µM | remaining activity at 1 µM [18]: 112% | Kd [5]: 43 µM | ΔpIC50 BRD4 BD1 ([6]; total compound concentration): 1.7 | IC50 [6, 27]: 158 nM | remaining activity at 1 µM [19]: 91% | Kd [7]: 210 nM | remaining activity at 1 µM [20]: 89% | Kd [8]: 310 nM | remaining activity at 1 µM [21]: 119% | remaining activity at 1 µM [22]: 101% | potency ([9]; L/V BET bromodomains): ~200 nM | remaining activity at 1 µM [23]: 98% | Kd [11]: > 60 µM | Kd [12]: 58 ± 4 µM | ΔH BRD4 BD1 WT [12, 28]: -13.3 ± 0.5 kcal/mol | Kd [13]: 90 nM | remaining activity at 1 µM [24]: 96% | Kd [14]: 24 µM | remaining activity at 1 µM [25]: 98% | Kd [15]: 29 µM | ΔH BRD4 BD1 L/V [16, 28]: -7.9 ± 0.1 kcal/mol | Kd [16, 29]: 170 ± 20 nM
